# Earlier results, collected in US20050003003A1, “Modulation of release from dry powder formulations” (Advanced Inhalation Research, Inc., priority 1999, published 2005).
# Where two headings read alike, the source gives them in different places.
# Settings: for transition temperature (Tc): bulk hydrated state; for theoretical transition: phospholipid of the formulation
# [1] = Table 1, phospholipids with low transition temperatures
# [2] = Table 2, phospholipids with high transition temperatures
Compound,Transition Temperature [1],Transition Temperature [2],other results
"CCCCCCCCCCCCCC(=O)OC[C@H](COP(=O)(O)OCC(O)CO)OC(=O)CCCCCCCCCCCCC (mixture of isomers) [DMPG, 1,2-Dimyristoyl-sn-glycero-3-[phospho-rac-(1-glycerol)]]",23 °C,–,–
"CCCCCCCCCCCCCCCC(=O)OC[C@H](COP(=O)(O)OCC(O)CO)OC(=O)CCCCCCCCCCCCCCC (mixture of isomers) [DPPG, 1,2-Dipalmitoyl-sn-glycero-3-[phospho-rac-(1-glycerol)]]",41 °C,–,–
"CCCCCCCCCCCCCCCCCC(=O)OCC(COP(=O)(O)OCC(O)CO)OC(=O)CCCCCCCCCCCCCCCCC (racemic) [DSPG, 1,2-Distearoyl-sn-glycero-3-[phospho-rac-(1-glycerol)]]",–,55 °C,–
"CCCCCCCCCCCCCCCCC(=O)OC[C@H](COP(=O)([O-])OCC[N+](C)(C)C)OC(=O)CCCCCCCCCCCCCCCC [1,2-Diheptadecanoyl-sn-glycero-3-phosphocholine]",–,48 °C,–
"CCCCCCCCCCCCCC(=O)OC[C@H](COP(=O)(O)OC[C@H](N)C(=O)O)OC(=O)CCCCCCCCCCCCC [1,2-Dimyristoyl-sn-glycero-3-[phospho-L-serine]]",35 °C,–,–
"CCCCCCCCCCCCCCCC(=O)OC[C@H](COP(=O)(O)OC[C@H](N)C(=O)O)OC(=O)CCCCCCCCCCCCCCC [1,2-Dipalmitoyl-sn-glycero-3-[phospho-L-serine]]",–,54 °C,–
"CCCCCCCCCCCCCCC(=O)OC[C@H](COP(=O)([O-])OCC[N+](C)(C)C)OC(=O)CCCCCCCCCCCCCC [1,2-Dipentadecanoyl-sn-glycero-3-phosphocholine]",33 °C,–,–
"CCCCCCCCCCCCCCCCCC(=O)OC[C@H](COP(=O)(O)OC[C@H](N)C(=O)O)OC(=O)CCCCCCCCCCCCCCCCC [1,2-Distearoyl-sn-glycero-3-[phospho-L-serine]]",–,68 °C,–
"CCCCCCCCCCCCC(=O)OC[C@H](COP(=O)([O-])OCC[N+](C)(C)C)OC(=O)CCCCCCCCCCCC [1,2-Ditridecanoyl-sn-glycero-3-phosphocholine]",14 °C,–,–
CCCCCCCCCCCCCCCC(=O)O[C@H](COC(=O)CCCCCCCCCCCCC)COP(=O)([O-])OCC[N+](C)(C)C [1-Myristoyl-2-palmitoyl-sn-glycero-3-phosphocholine],35 °C,–,–
CCCCCCCCCCCCCCCCCC(=O)O[C@H](COC(=O)CCCCCCCCCCCCC)COP(=O)([O-])OCC[N+](C)(C)C [1-Myristoyl-2-stearoyl-sn-glycero-3-phosphocholine],40 °C,–,–
CCCCCCCCCCCCCCCC(=O)OC[C@H](COP(=O)([O-])OCC[N+](C)(C)C)OC(=O)CCCCCCCCCCCCC [1-Palmitoyl-2-myristoyl-sn-glycero-3-phosphocholine],27 °C,–,–
CCCCCCCCCCCCCCCCCC(=O)O[C@H](COC(=O)CCCCCCCCCCCCCCC)COP(=O)([O-])OCC[N+](C)(C)C [1-Palmitoyl-2-stearoyl-sn-glycero-3-phosphocholine],–,49 °C,–
CCCCCCCCCCCCCCCCCC(=O)OC[C@H](COP(=O)([O-])OCC[N+](C)(C)C)OC(=O)CCCCCCCCCCCCC [1-Stearoyl-2-myristoyl-sn-glycero-3-phosphocholine],30 °C,–,–
"CCCCCCCCCCCC(=O)OC[C@H](COP(=O)(O)O)OC(=O)CCCCCCCCCCC [DLPA, 1,2-Dilauroyl-sn-glycero-3-phosphate]",31 °C,–,–
"CCCCCCCCCCCC(=O)OC[C@H](COP(=O)([O-])OCC[N+](C)(C)C)OC(=O)CCCCCCCCCCC [DLPC, 1,2-Dilauroyl-sn-glycero-3-phosphocholine]",−1 °C,–,–
"CCCCCCCCCCCC(=O)OC[C@H](COP(=O)(O)OCCN)OC(=O)CCCCCCCCCCC [DLPE, 1,2-Dilauroyl-sn-glycero-3-phosphoethanolamine]",29 °C,–,–
"CCCCCCCCCCCCCC(=O)OC[C@H](COP(=O)(O)O)OC(=O)CCCCCCCCCCCCC [DMPA, 1,2-Dimyristoyl-sn-glycero-3-phosphate]",–,50 °C,–
"CCCCCCCCCCCCCC(=O)OC[C@H](COP(=O)([O-])OCC[N+](C)(C)C)OC(=O)CCCCCCCCCCCCC [DMPC, 1,2-Dimyristoyl-sn-glycero-3-phosphocholine]",23 °C,–,–
"CCCCCCCCCCCCCC(=O)OC[C@H](COP(=O)(O)OCCN)OC(=O)CCCCCCCCCCCCC [DMPE, 1,2-Dimyristoyl-sn-glycero-3-phosphoethanolamine]",–,50 °C,–
"CCCCCCCCCCCCCCCC(=O)OC[C@H](COP(=O)(O)O)OC(=O)CCCCCCCCCCCCCCC [DPPA, 1,2-Dipalmitoyl-sn-glycero-3-phosphate]",–,67 °C,–
"CCCCCCCCCCCCCCCC(=O)OC[C@H](COP(=O)([O-])OCC[N+](C)(C)C)OC(=O)CCCCCCCCCCCCCCC [DPPC, 1,2-Dipalmitoyl-sn-glycero-3-phosphocholine]",41 °C,–,transition temperature (Tc): approximately 41 °C; theoretical transition: 41 °C
"CCCCCCCCCCCCCCCC(=O)OC[C@H](COP(=O)(O)OCCN)OC(=O)CCCCCCCCCCCCCCC [DPPE, 1,2-Dipalmitoyl-sn-glycero-3-phosphoethanolamine]",–,63 °C,transition temperature (Tc): approximately 63 °C
"CCCCCCCCCCCCCCCCCC(=O)OC[C@H](COP(=O)([O-])OCC[N+](C)(C)C)OC(=O)CCCCCCCCCCCCCCCCC [DSPC, 1,2-Distearoyl-sn-glycero-3-phosphocholine]",–,55 °C,transition temperature (Tc): approximately 55 °C; theoretical transition: 55 °C
"CCCCCCCCCCCCCCCCCC(=O)OC[C@H](COP(=O)(O)OCCN)OC(=O)CCCCCCCCCCCCCCCCC [DSPE, 1,2-Distearoyl-sn-glycero-3-phosphoethanolamine]",–,74 °C,–
